From PubChem BioAssay AID2060883 (Molecular Pharmacology Branch, DTP, NCI, 2025)

System: 843782-103-R-J1-PDC complex spheroid viability
Assay: Anticancer human tumor 843782-103-R-J1-PDC patient-derived lung adenocarcinoma cell line growth inhibition [RAS]
Conditions: for IC50: curve of first compound; for viability, T/C: stronger effect = lower value
Text: RAS pathway inhibitors in Combinations in Complex Spheroids
A high-throughput screen of multi-cell type tumor spheroids was designed to identify active combinations of RAS pathway inhibitors and targeted small molecules. Complex spheroids include a stromal component modeled by human endothelial cells (HUVEC) and fibroblasts modeled by human mesenchymal stem cells (MSCs). The concentration ranges selected for each drug and investigational agent were based upon clinically achievable concentrations if the clinical Cmax of the agent was known.
Compounds. The drugs and investigational agents: abemaciclib (NSC768073), cobimetinib (NSC768068), divarasib (GDC6063, NSC841802), docetaxel (NSC628503), GDC-1971 (RLY-1971, NSC841576), gemcitabine (NSC613327), inavolisib (NSC800729), ipatasertib (NSC767898), KB-0742 (NSC834161), MRTX-1133 (NSC836407), osimertinib (NSC779217), RMC-4630 (NSC839698), RMC-6236 (NSC851965), RMC-6291 (NSC852671), Ro-3306 (NSC812927), sapanisertib (NSC764658), SN-38 (NSC673596), staurosporine (NSC755774), SY5609 (NSC837396), and tovorafenib (DAY101, NSC766906), were obtained from the National Cancer Institute (NCI) Developmental Therapeutics Program Chemical Repository. The FDA-approved anticancer drug set is available from the NCI Developmental Therapeutics Program. […] The stock solutions were prepared in dimethyl sulfoxide (DMSO, Sigma-Aldrich, St. Louis, MO, cat. D2650) at 800-fold the tested concentration and stored at -70 degrees C prior to their use. All drugs and investigational agents were tested over a range starting from a high concentration at or near the clinical Cmax and decreasing in half-log increments. If the clinical Cmax for an agent had not been determined, the highest concentration tested was 10 microM.
Cell Culture. All cells were maintained in an incubator at 37 degrees C and 5% CO2 with 95% humidity. The PDC lines were cultured according to standard operating procedures established by the NCI PDMR. All PDCs were thawed and cultured in Matrigel-coated flasks prepared with a working solution of 1X Ham's F-12 nutrient mix, without supplementation (Invitrogen, Waltham, MA, cat. 11765054), 100 U/mL penicillin-streptomycin (Invitrogen, cat. 15140122), and 2.5% Matrigel (Corning Inc., Corning, NY, cat. 354248) for the first three passages. The 362531-283-R-J2-PDC and 782815-120-R-J1-PDC lines were cultured in 6C/Colon 1B media, which includes advanced DMEM/F-12 (Thermo Fisher Scientific, cat. 12634028), 10 mM HEPES (Thermo Fisher Scientific, cat. 15630080), 1X GlutaMAX supplement (Thermo Fisher Scientific, cat. 35050061), 0.1 mg/mL primocin (InvivoGen, San Diego, CA, cat. ant-pm-2), 10% defined fetal bovine serum, heat inactivated (HyClone Laboratories Inc., Logan, UT, cat. SH30070.03HI), 50% L-WRN conditioned media (ATCC, cat. CRL-3276), 1.25 mM N-Acetyl-L-cysteine (Sigma-Aldrich, cat. A9165), 10 mM nicotinamide (Sigma-Aldrich, cat. N0636), 1X B-27 supplement (Thermo Fisher Scientific, cat. 17504044), 1X N-2 supplement (Thermo Fisher Scientific, cat. 17502048), 50 ng/mL human EGF (Thermo Fisher Scientific, cat. PHG0311), and 10 microM Y-27632 dihydrochloride (Tocris Bioscience, cat. 1254). The K12877-001-R-J1-PDC line was cultured in 6I media, which includes all 6C/Colon 1B media plus 10 ng/mL human FGF-10 (PeproTech, cat. 100-26), 1 ng/mL human FGF-2 (PeproTech, cat. 100-18B), 1 µM prostaglandin E2 (Tocris Bioscience, cat. 2296), […] hydrocortisone (Sigma-Aldrich, cat. H4001), and […] bovine insulin (Sigma-Aldrich, cat. I6634). The K86415-001-R-J1-PDC line was cultured in 6D media, which includes all 6C/Colon 1B media components minus the L-WRN conditioned media. The 485176-168-R4-J1-PDC was cultured in PANC media, which includes all 6C/Colon 1B media plus 100 ng/mL human FGF-10 (PeproTech, cat. 100-26), 500 nM SB-431542 (Selleckchem, cat. S1067), and 10 nM gastrin (Tocris Bioscience, cat. 3006). […]
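Further: viability read after seven days of compound exposure.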

In the case of `CC1(O)CCCC1n1c(=O)c(C(F)F)cc2cnc(NC3CCN(S(C)(=O)=O)CC3)nc21` (configuration not stated) + C#Cc1c(F)ccc2cc(O)cc(-c3ncc4c(N5CC6CCC(C5)N6)nc(OCC56CCCN5CC(F)C6)nc4c3F)c12, the IC50 (second compound 0.0316 µM) is reported as 237 nM, the IC50 (second compound 0.1 µM) is reported as 343 nM and the IC50 (second compound 0.316 µM) is reported as 283 nM. For the same molecule, the IC50 (second compound 1 µM) was 304 nM, the IC50 (second compound 3.16 µM) was 149 nM and the IC50 (second compound 10 µM) was < 31.6 nM. It also gave a viability, T/C (second compound 0.0316 µM, first compound 0.0316 µM) of 98.9%, a viability, T/C (second compound 0.0316 µM, first compound 0.1 µM) of 93.4% and a viability, T/C (second compound 0.0316 µM, first compound 0.316 µM) of 34.7%. It also gave a viability, T/C (second compound 0.0316 µM, first compound 1 µM) of 41.8%, a viability, T/C (second compound 0.0316 µM, first compound 3.16 µM) of 23.2% and a viability, T/C (second compound 0.0316 µM, first compound 10 µM) of 3.99%. The viability, T/C (second compound 0.1 µM, first compound 0.0316 µM) was 102%, the viability, T/C (second compound 0.1 µM, first compound 0.1 µM) was 82.7% and the viability, T/C (second compound 0.1 µM, first compound 0.316 µM) was 37%. The viability, T/C (second compound 0.1 µM, first compound 1 µM) was 38.9%, the viability, T/C (second compound 0.1 µM, first compound 3.16 µM) was 23.6% and the viability, T/C (second compound 0.1 µM, first compound 10 µM) was 3.28%. It also gave a viability, T/C (second compound 0.316 µM, first compound 0.0316 µM) of 104%, a viability, T/C (second compound 0.316 µM, first compound 0.1 µM) of 77.5% and a viability, T/C (second compound 0.316 µM, first compound 0.316 µM) of 33.8%. For the same molecule, the viability, T/C (second compound 0.316 µM, first compound 1 µM) was 37.3%, the viability, T/C (second compound 0.316 µM, first compound 3.16 µM) was 26.5% and the viability, T/C (second compound 0.316 µM, first compound 10 µM) was 3.67%. For the same molecule, the viability, T/C (second compound 1 µM, first compound 0.0316 µM) was 97.9%, the viability, T/C (second compound 1 µM, first compound 0.1 µM) was 79.1% and the viability, T/C (second compound 1 µM, first compound 0.316 µM) was 39.2%. It also gave a viability, T/C (second compound 1 µM, first compound 1 µM) of 31.7%, a viability, T/C (second compound 1 µM, first compound 3.16 µM) of 26.2% and a viability, T/C (second compound 1 µM, first compound 10 µM) of 3.42%. It also gave a viability, T/C (second compound 3.16 µM, first compound 0.0316 µM) of 84.6%, a viability, T/C (second compound 3.16 µM, first compound 0.1 µM) of 56.5% and a viability, T/C (second compound 3.16 µM, first compound 0.316 µM) of 27.6%. It also gave a viability, T/C (second compound 3.16 µM, first compound 1 µM) of 33.9%, a viability, T/C (second compound 3.16 µM, first compound 3.16 µM) of 26% and a viability, T/C (second compound 3.16 µM, first compound 10 µM) of 2.68%. It also gave a viability, T/C (second compound 10 µM, first compound 0.0316 µM) of 52.9%, a viability, T/C (second compound 10 µM, first compound 0.1 µM) of 32.7% and a viability, T/C (second compound 10 µM, first compound 0.316 µM) of 30.9%. It also gave a viability, T/C (second compound 10 µM, first compound 1 µM) of 27.6%, a viability, T/C (second compound 10 µM, first compound 3.16 µM) of 29% and a viability, T/C (second compound 10 µM, first compound 10 µM) of 1.43%.
